Laboratory results reported in publication PMC8193046, “Scaffold fragmentation and substructure hopping reveal potential, robustness, and limits of computer-aided pattern analysis (C@PA)” (Computational and Structural Biotechnology Journal, 2021).
pIC50: −log10 of the molar value.

Key:
Format in all cases: cell-based
ABCC1 = target: T1, ABCC1 (Homo sapiens, UniProt P33527); assay: calcein AM fluorescence accumulation assay, ABCC1-overexpressing H69AR cells; conditions: for activity against ABCC1 in preliminary screening: screened at 10 µM, active = at least 20% (+SEM) of effect of 10 µM compound 26
T1 construct: ABCC1-overexpressing H69AR (60,000 cells/well) cells were added; host or cells: H69AR
Experimental: (§1) Compounds 16–25 were screened at 10 µM in calcein AM (ABCB1 and ABCC1) as well as pheophorbide A (ABCG2) fluorescence accumulation assays using either ABCB1-overexpressing A2780/ADR, ABCC1-overexpressing H69AR, or ABCG2-overexpressing MDCK II BCRP cells, respectively, as reported earlier, [43], [45], [67], [101]. Calcein AM and pheophorbide A are substrates of ABCB1 and ABCC1 as well as ABCG2, respectively, which passively diffuse into the used cells and become extruded by the corresponding ABC transporter. Inhibition of the respective transporter results in the accumulation of these substrates. Calcein AM is subsequently cleaved by intracellular esterases to the fluorescent calcein, while pheophorbide A is already fluorescent. Intracellular fluorescence was determined via microplate reader (calcein AM; ABCB1 and ABCC1) and flow cytometry (pheophorbide A; ABCG2), respectively. Compounds 2 (Fig. 1) and 26–27 (Fig. 5) were used as reference inhibitors against ABCB1, ABCC1, and ABCG2, respectively, as reported before, [101]. Fig. 7 provides the screening results for ABCB1 (A), ABCC1 (B), and ABCG2 (C).
(§2) The ABCB1-overexpressing A2780/ADR cells were delivered by European Collection of Animal Cell Culture (ECACC, no. 93112520) and cultivated using RPMI-1640 medium (PAN-Biotech GmbH, Aidenbach, Germany) complemented with fetal bovine serum (FCS; 10%; PAN-Biotech GmbH, Aidenbach, Germany), streptomycin (50 µg/µL; PAN-Biotech GmbH, Aidenbach, Germany), penicillin G (50 U/mL; PAN-Biotech GmbH, Aidenbach, Germany), as well as L-glutamine (2 mM; PAN-Biotech GmbH, Aidenbach, Germany). The ABCC1-overexpressing H69AR cells were provided by American Type Culture Collection (ATCC CRL-11351), which were cultured with RPMI-1640 medium to which FCS (20%), streptomycin (50 µg/µL), penicillin G (50 U/mL), as well as L-glutamine (2 mM) were added. Dr. A. Schinkel (The Netherlands Cancer Institute, Amsterdam, The Netherlands) generously provided the ABCG2-overexpressing MDCK II BCRP cells, which were cultivated in Dulbecco's modified eagle medium (DMEM; Sigma Life Science, Steinheim, Germany) complemented with FCS (10%), streptomycin (50 µg/µL), penicillin G (50 U/mL), as well as L-glutamine (2 mM). […]
(§3) The inhibitory activity against ABCB1 and ABCC1 was evaluated in a calcein AM assay as reported earlier, [67], [101]. […] The incubation period at 37 °C under 5% CO2-humidified atmosphere lasted 30 min before 20 µL of a 3.125 µM calcein AM was added to each well, subsequently followed by measurement of fluorescence increase at an excitation wavelength of 485 nm and an emission wave length of 520 nm in 60 sec intervals for 1 h in either POLARstar and FLUOstar Optima microplate readers (BMG Labtech, software versions 2.00R2/2.20 and 4.11-0; Offenburg, Germany).

ABCB1 = target: T2, ABCB1 (Homo sapiens, UniProt P08183); assay: calcein AM fluorescence accumulation assay, ABCB1-overexpressing A2780/ADR cells; conditions: for activity against ABCB1 in preliminary screening: screened at 10 µM, active = at least 20% (+SEM) of effect of 10 µM compound 2
T2 construct: ABCB1-overexpressing A2780/ADR (30,000 cells/well); host or cells: A2780/ADR
Experimental: as §1
as §2, with “mM). The cell lines were stored in a mixture of 90% cell culture medium and 10% DMSO under liquid nitrogen, while cultivation was performed at 37 °C under 5% CO2-humidified atmosphere. After a confluence of 90% was reached, the cells were harvested using a 0.05%/0.02% trypsin-EDTA solution (PAN-Biotech GmbH, Aidenbach, Germany).” for “mM).”
as §3

ABCG2 = target: T3, ABCG2 (Homo sapiens, UniProt Q9UNQ0); assay: pheophorbide A fluorescence accumulation assay, ABCG2-overexpressing MDCK II BCRP cells
T3 construct: host or cells: MDCK II BCRP
T3 sequence (Q9UNQ0 1-655): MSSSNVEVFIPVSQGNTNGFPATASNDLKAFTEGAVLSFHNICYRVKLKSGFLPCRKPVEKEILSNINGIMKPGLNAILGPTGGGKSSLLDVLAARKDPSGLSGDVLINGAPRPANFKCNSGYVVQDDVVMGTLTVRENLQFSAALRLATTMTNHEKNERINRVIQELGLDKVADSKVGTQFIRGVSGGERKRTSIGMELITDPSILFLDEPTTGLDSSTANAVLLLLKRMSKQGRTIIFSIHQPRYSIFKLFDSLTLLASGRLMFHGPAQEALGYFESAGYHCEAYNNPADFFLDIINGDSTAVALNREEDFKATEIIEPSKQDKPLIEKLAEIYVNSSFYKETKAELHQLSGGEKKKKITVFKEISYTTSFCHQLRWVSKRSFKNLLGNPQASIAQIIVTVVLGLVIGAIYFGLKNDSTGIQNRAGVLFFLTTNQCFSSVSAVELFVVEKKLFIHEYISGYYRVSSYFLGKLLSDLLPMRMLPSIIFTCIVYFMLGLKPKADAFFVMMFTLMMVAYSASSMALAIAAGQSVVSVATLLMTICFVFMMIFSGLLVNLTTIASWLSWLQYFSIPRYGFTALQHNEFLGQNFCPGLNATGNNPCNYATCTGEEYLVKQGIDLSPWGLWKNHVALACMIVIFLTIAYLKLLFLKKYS
Experimental: as §1, with “Fig. 7 provides the screening results for ABCB1 (A), ABCC1 (B), and ABCG2 (C).” left out
The inhibitory activity against ABCG2 was evaluated in a pheophorbide A assay as reported earlier, [67]. […] The effect values of compounds 16–25 were measured via flow cytometry [Guava easyCyte^TM HT, (Merck Millipore, Billerica, MA, USA; excitation: 488 nm; emission: 695/50 nm)] and compared to the effect value of 10 µM of compound 27.

T2 sequence (P08183 whole entry): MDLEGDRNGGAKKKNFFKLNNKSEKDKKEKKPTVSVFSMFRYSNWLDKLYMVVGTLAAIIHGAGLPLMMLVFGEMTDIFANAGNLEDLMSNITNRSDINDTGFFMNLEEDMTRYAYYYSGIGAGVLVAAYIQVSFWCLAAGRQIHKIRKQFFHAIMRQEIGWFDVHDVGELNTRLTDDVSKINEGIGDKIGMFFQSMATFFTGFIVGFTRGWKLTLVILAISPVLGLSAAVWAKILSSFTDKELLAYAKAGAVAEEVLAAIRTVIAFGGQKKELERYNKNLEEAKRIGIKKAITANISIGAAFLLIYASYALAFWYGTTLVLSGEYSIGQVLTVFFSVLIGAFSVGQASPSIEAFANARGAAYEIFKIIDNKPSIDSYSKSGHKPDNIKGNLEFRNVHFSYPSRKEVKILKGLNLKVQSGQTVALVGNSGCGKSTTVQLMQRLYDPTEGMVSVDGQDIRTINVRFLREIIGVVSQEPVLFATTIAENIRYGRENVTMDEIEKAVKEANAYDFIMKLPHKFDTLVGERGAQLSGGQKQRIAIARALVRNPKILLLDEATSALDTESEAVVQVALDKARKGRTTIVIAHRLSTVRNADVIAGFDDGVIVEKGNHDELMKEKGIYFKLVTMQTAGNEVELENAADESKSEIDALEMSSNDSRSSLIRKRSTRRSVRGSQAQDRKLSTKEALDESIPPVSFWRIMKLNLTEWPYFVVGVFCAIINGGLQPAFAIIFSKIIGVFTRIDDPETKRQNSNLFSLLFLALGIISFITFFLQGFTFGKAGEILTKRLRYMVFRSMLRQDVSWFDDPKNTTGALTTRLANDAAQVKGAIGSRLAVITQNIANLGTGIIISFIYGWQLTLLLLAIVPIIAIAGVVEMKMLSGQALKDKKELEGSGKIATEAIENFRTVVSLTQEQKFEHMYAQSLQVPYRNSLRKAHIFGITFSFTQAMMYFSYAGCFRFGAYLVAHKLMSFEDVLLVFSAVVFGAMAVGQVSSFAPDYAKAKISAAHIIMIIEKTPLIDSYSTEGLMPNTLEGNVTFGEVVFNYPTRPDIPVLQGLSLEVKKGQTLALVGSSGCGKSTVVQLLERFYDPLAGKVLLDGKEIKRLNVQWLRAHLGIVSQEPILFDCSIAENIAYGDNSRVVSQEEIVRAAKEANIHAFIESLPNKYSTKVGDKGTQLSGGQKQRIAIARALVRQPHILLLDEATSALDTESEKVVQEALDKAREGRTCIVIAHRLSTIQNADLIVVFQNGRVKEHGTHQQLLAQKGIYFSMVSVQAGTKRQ
T1 sequence (P33527 whole entry): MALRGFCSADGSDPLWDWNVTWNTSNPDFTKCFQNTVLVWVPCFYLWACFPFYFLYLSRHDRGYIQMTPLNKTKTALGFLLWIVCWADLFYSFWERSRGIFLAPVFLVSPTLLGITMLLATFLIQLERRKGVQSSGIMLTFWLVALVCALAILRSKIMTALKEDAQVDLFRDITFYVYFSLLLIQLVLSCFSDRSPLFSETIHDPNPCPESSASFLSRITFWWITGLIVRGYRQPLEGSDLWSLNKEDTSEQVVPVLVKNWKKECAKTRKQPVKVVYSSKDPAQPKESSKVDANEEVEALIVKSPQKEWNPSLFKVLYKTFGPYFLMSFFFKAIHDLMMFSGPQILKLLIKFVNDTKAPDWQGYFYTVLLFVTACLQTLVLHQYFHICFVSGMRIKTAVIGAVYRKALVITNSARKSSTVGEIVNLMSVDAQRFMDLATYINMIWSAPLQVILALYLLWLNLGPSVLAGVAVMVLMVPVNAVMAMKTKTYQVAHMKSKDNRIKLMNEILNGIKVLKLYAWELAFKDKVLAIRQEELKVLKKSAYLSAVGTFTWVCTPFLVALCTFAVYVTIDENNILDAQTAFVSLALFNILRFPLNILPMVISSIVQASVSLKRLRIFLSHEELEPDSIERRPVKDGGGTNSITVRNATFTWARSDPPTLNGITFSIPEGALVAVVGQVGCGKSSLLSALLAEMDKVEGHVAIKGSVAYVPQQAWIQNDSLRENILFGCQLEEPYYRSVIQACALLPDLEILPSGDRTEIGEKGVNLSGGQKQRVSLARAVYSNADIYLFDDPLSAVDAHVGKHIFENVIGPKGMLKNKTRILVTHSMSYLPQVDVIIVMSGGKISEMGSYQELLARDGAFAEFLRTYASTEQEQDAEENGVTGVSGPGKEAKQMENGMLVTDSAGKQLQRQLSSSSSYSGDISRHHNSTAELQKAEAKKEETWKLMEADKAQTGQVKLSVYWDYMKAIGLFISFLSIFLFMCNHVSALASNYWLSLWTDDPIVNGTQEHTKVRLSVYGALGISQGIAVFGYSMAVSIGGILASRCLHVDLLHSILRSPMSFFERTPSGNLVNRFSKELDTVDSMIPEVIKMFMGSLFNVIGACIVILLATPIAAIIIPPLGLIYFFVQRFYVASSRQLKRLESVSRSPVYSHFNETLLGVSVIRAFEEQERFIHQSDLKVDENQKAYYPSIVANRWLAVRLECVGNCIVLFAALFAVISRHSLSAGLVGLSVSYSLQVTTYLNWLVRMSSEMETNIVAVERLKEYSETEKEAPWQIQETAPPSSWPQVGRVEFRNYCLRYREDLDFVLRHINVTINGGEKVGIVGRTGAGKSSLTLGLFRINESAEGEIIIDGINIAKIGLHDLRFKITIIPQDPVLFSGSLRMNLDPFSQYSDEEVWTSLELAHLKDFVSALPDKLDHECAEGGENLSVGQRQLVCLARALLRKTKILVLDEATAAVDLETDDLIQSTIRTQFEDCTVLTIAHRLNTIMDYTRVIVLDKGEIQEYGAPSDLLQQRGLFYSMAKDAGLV

activity against ABCC1 in preliminary screening (ABCC1)	activity against ABCB1 in preliminary screening (ABCB1)	SMILES	further results
inhibited ABCC1		O=C(CN1CCN(C(=O)Cn2cnc3scc(-c4cccs4)c3c2=O)CC1)N1CCCCCC1 [compound 18, 3-(2-(4-(2-(azepan-1-yl)-2-oxoethyl)piperazin-1-yl)-2-oxoethyl)-5-(thiophen-2-yl)thieno[2,3-d]pyrimidin-4(3H)-one]	
	activities against ABCB1	O=C(c1cccn1-c1nnc(N2CCCC2)s1)N1CCN(Cc2ccc3c(c2)OCO3)CC1 [compound 19, (4-(benzo[d][1,3]dioxol-5-ylmethyl)piperazin-1-yl)(1-(5-(pyrrolidin-1-yl)-1,3,4-thiadiazol-2-yl)-1H-pyrrol-2-yl)methanone]	

Further lines, the compound ahead of its results:

SMILES	activity against ABCC1 in preliminary screening (ABCC1)	activity against ABCB1 in preliminary screening (ABCB1)	further results
Cc1onc(-c2ccccc2)c1-c1nnc(CN2CCCC2c2ccc3c(c2)OCCCO3)o1 (centres unmarked) [compound 16, 2-((2-(3,4-dihydro-2H-benzo[b][1,4]dioxepin-7-yl)pyrrolidin-1-yl)methyl)-5-(5-methyl-3-phenyl-isoxazol-4-yl)-1,3,4-oxadiazole]	inhibited ABCC1	activities against ABCB1	
O=C(NC1CCC(OC(=O)c2cncn2-c2ccc(F)cc2)CC1)c1cncn1-c1ccc(F)cc1 (centres unmarked) [compound 17, 4-(1-(4-fluorophenyl)-1H-imidazole-5-carboxamido)cyclohexyl 1-(4-fluorophenyl)-1H-imidazole-5-carboxylate]		activities against ABCB1	
C1=CC2=NC3N4CN(CCCN5CCOCC5)CNC4=NC(c4ccccn4)N3C2C=C1 (centres unmarked) [compound 20, 4-(3-(6-(pyridin-2-yl)-4,6,7a,12a-tetrahydro-1H-benzo[4,5]imidazo[1,2-a][1,3,5]triazino[1,2-c][1,3,5]triazin-2(3H)-yl)propyl)morpholine]	did inhibit neither of the evaluated transporters	did inhibit neither of the evaluated transporters	activity against ABCG2 in preliminary screening (ABCG2; screened at 10 µM, active = at least 20% (+SEM) of effect of 10 µM compound 27): did inhibit neither of the evaluated transporters
Cc1nc(N2CCN(C(=O)C(c3ccccc3)c3ccccc3)CC2)cc(-n2ccnc2)n1 [compound 23, 1-(4-(6-(1H-imidazol-1-yl)-2-methylpyrimidin-4-yl)piperazin-1-yl)-2,2-diphenylethan-1-one]			pIC50 (ABCC1; calcein AM assay, H69AR cells, 100% = 10 µM reference inhibitor 26, read-out: IC50 against ABCC1): 4.83; pIC50 (ABCG2; pheophorbide A assay, MDCK II BCRP cells, 100% = 10 µM reference inhibitor 27, read-out: IC50 against ABCG2): 5.03; pIC50 (ABCB1; calcein AM assay, A2780/ADR cells, 100% = 10 µM reference inhibitor 2, read-out: IC50 against ABCB1): 5.40
